For the data set, the target named is MALAT1. The following applies: ASO, A431, 0.005 µM.

“And” between values parts separate entries of the source, which are not always exact repeats. Identical values can stand only once. After the bases stand the sugars from the 5' end (letter, count) and the backbone: PS all phosphorothioate, else s phosphorothioate and o phosphodiester by linkage. Methylation of C is not given here. k = constrained ethyl (cEt); d = 2'-deoxy (DNA)

Regarding CTCTTCTGATAACGAA (sugars k3 d10 k3, PS), the target mRNA inhibition turned out to be 23%.
Under GATTCCGTAACTTTAA (sugars k3 d10 k3, PS) stands 69% and 90%; under CTTCAGGCGAGCTGAG (sugars k3 d10 k3, PS), -4%; under TACAGAAGTCTCGGGC (sugars k3 d10 k3, PS), 28%.
With AAGTGGTTGCCCGCTT (sugars k3 d10 k3, PS) the figure was 22%.
As to TTACAGAAGTCTCGGG (sugars k3 d10 k3, PS), the target mRNA inhibition was found to be 11%.
With CAGCTAAGATAGCAGC (sugars k3 d10 k3, PS) the figure was 8%.
With TATGACACTTTCCTTG (sugars k3 d10 k3, PS), the target mRNA inhibition amounted to 25%.
As for ACGGTTGAGAAGTGGC (sugars k3 d10 k3, PS), the target mRNA inhibition is 22%.
With CAGTCCTTTACAGAAG (sugars k3 d10 k3, PS) the figure was 12%; with GCTCACATGCCAGTTA (sugars k3 d10 k3, PS), 32%; with ACTCTAATCACTGTCA (sugars k3 d10 k3, PS), 35%.
As to AACTAGCACCTGCAGA (sugars k3 d10 k3, PS), the target mRNA inhibition is 17%.
Under ACTCAGAAGATGTTAT (sugars k3 d10 k3, PS) stands 30%; under TCCACTTGATCCCAAC (sugars k3 d10 k3, PS), 47% and 56%.
With CTAAGCGAATGGCTTT (sugars k3 d10 k3, PS) the figure was 22%; with AATTAATGCACTGGTA (sugars k3 d10 k3, PS), 19%; with GAAAGATTTGAGCTGC (sugars k3 d10 k3, PS), -10%.
With GGTACTTCAAGCATTC (sugars k3 d10 k3, PS) the figure was 44%; with ATATTTTGCCCCCACC (sugars k3 d10 k3, PS), 2%.
Take TCCAAGAACTAGCACC (sugars k3 d10 k3, PS): the target mRNA inhibition was -5%.
With GTCCAATGCAAAAACA (sugars k3 d10 k3, PS), the target mRNA inhibition was -5%.
Under GGATAAAAGCAGCTCC (sugars k3 d10 k3, PS) stands 32%; under TGAAGCATACCTTAAC (sugars k3 d10 k3, PS), 31%; under CTGCACCACCAGAAAT (sugars k3 d10 k3, PS), 20%.
Consider TCGCCTTCAAATTATT (sugars k3 d10 k3, PS), for which the target mRNA inhibition was 35%.
Under TTCTGAACCGGAGCAG (sugars k3 d10 k3, PS) stands 23%.
Under GCAGGCAAATTAATGG (sugars k3 d10 k3, PS) stands 45%.
Regarding AGGCTATTACCTGAAA (sugars k3 d10 k3, PS), the target mRNA inhibition is -5%.
With CCAGTCTACAAGTTAC (sugars k3 d10 k3, PS), the target mRNA inhibition is 50% and 56%.
In the case of ATTTAACTTCCCCCAG (sugars k3 d10 k3, PS), the target mRNA inhibition worked out at 18%.
With GCCCACAGGAACAAGT (sugars k3 d10 k3, PS) the figure was 25%.
For CCAAGCACTCATATGC (sugars k3 d10 k3, PS), the target mRNA inhibition came to 12%.
TCTTAATCAGTTACAA (sugars k3 d10 k3, PS): the target mRNA inhibition stood at 9%.
Under CTGGAATGGCCAGCCT (sugars k3 d10 k3, PS) stands 15%; under CTCACAAGGCAAATCG (sugars k3 d10 k3, PS), -12%; under GACAAGATTCATGAGT (sugars k3 d10 k3, PS), 47%.
With TAAGAGACATTCAAGC (sugars k3 d10 k3, PS), the target mRNA inhibition was 17%.
Turning to TCTAAAAGCATTGCCC (sugars k3 d10 k3, PS), the target mRNA inhibition was 29%.
Under ACTAAACAATTACCTA (sugars k3 d10 k3, PS) stands 9%.
As to TCTCAATTTGGCTATC (sugars k3 d10 k3, PS), the target mRNA inhibition was determined as 29%.
As to TATAGACCCCTGACTT (sugars k3 d10 k3, PS), the target mRNA inhibition was determined as 42%.
TTCTGATAACGAAGAG (sugars k3 d10 k3, PS): the target mRNA inhibition is 8%.
With CTGAGAAAACAATACG (sugars k3 d10 k3, PS), the target mRNA inhibition worked out at 8%.
As to CAACCGTAACAGGCCA (sugars k3 d10 k3, PS), the target mRNA inhibition was determined as 23%.
For TACAATCAAGTCAAGC (sugars k3 d10 k3, PS), the target mRNA inhibition is -2%.
With TGGTTATAGCTTGACA (sugars k3 d10 k3, PS) the figure was 82% and 95%.
Under GCAGATAATGTTCTCA (sugars k3 d10 k3, PS) stands 73% and 95%; under TTGAAGCATACCTTAA (sugars k3 d10 k3, PS), 28%; under CCTAGCTTCATCAAAC (sugars k3 d10 k3, PS), -2%.
Regarding CGCCTTCCCGTACTTC (sugars k3 d10 k3, PS), the target mRNA inhibition was found to be 57%.
Under CAAGGATCCAAGCTAC (sugars k3 d10 k3, PS) stands 19%.
With CACGCCAACACAGTTT (sugars k3 d10 k3, PS) the figure was 36%; with CTTCCGCCGCCTCTTA (sugars k3 d10 k3, PS), 9%.
With CGACCTCACGGATTTT (sugars k3 d10 k3, PS) the figure was 16%; with AATCATACTCCAGTCG (sugars k3 d10 k3, PS), 35%; with CAATAGTACTATAGCA (sugars k3 d10 k3, PS), 7%.
As to AATCGCCATGGAAAGC (sugars k3 d10 k3, PS), the target mRNA inhibition was -4%.
In the case of ATCACCGGAATTCGAT (sugars k3 d10 k3, PS), the target mRNA inhibition is 17%.
With TAGGCCATCATACTGC (sugars k3 d10 k3, PS) the figure was 6%.
Consider AGAGGGAGTTGAGGCA (sugars k3 d10 k3, PS), for which the target mRNA inhibition worked out at 40%.
Take TAGTAGCTTTTTGATG (sugars k3 d10 k3, PS): the target mRNA inhibition is 31%.
With GTAAAACATTGCCTAC (sugars k3 d10 k3, PS) the figure was 24%.
Take CTCAAATGCCTATCTT (sugars k3 d10 k3, PS): the target mRNA inhibition is 19%.
Under GAATCCCCCCCAAGAT (sugars k3 d10 k3, PS) stands -15%; under ACTTATCTGTTAACAG (sugars k3 d10 k3, PS), 25%; under TTTTAGTCACTGGATA (sugars k3 d10 k3, PS), 45%.
On to CAGGCAAATTAATGGC (sugars k3 d10 k3, PS), for which the target mRNA inhibition was 23%.
With CTTGAATGCAAACTAC (sugars k3 d10 k3, PS) the figure was -6%; with TCTGCGGTTTCCTCAA (sugars k3 d10 k3, PS), 49%.
With GAGAACAACTCGCATC (sugars k3 d10 k3, PS) the figure was 20%.
